Experimental data published in publication PMC8688955 (Frontiers in Pharmacology, 2021).
Where two headings read alike, the source gives them in different places.

How the values were obtained:
[1] = target: T1, CI-AMPARs (Rattus norvegicus, UniProt P19491, Q607R); assay: Whole-cell patch-clamp of kainate-induced currents in isolated hippocampal CA1 pyramidal neurons; assay type: cell-based, Wistar rat; settings: for Difference in the % of inhibition in coapplication and preapplication protocols: coapplication with kainate vs preapplication without kainate; for CI-AMPARs % inhibition at 100 µM: 100 µM compound; for CI-AMPARs % inhibition at 100 µM / inhibition at 100 µM: currents induced by 100 µM kainate, −80 mV, mean ± SD, N = 5; for inhibition at 100 µM: read-out: CI-AMPARs % inhibition at 100 µM, 100 µM compound
T1 construct: activity against native calcium-permeable AMPA receptors (CP-AMPARs) and calcium-impermeable AMPA receptors (CI-AMPARs); endogenous in cells; host or cells: acutely isolated pyramidal neurons from the CA1 area of Wistar rat hippocampal slices
T1 sequence (P19491 22-883 Q607R): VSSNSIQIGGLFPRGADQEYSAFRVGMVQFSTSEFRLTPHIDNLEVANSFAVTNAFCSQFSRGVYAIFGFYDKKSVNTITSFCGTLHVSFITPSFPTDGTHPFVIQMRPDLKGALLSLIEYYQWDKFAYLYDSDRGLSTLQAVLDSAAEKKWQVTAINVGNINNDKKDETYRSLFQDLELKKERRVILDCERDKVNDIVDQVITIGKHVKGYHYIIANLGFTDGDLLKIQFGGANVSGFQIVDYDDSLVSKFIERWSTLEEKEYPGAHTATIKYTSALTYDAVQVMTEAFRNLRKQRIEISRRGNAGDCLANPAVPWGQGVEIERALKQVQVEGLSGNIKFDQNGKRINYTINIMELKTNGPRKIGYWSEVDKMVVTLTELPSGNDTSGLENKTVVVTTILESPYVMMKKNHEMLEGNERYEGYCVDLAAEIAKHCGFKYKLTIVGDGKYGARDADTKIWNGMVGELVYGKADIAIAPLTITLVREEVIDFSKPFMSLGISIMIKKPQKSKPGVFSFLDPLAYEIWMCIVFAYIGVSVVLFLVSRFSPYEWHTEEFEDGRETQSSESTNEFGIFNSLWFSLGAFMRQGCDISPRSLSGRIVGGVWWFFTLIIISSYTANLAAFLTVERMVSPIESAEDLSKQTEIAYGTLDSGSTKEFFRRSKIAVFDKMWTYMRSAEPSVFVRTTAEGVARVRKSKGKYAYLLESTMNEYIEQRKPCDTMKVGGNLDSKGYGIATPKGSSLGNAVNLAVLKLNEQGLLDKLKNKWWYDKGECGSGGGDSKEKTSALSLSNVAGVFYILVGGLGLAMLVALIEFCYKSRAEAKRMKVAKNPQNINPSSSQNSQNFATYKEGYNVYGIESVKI
Experimental: All experimental procedures were approved by the Animal Care and Use Committee of the I.M. Sechenov Institute of Evolutionary Physiology and Biochemistry of the Russian Academy of Sciences. Wistar rats (13–19 days old) were anesthetized with sevoflurane and then decapitated. Maximum effort was made to minimize the number of animals used. Brains were removed quickly and cooled to 2–4°C in an ice bath. […] The antagonism of CI-AMPARs was studied on pyramidal neurons from the CA1 area of the hippocampus.
Series resistance of about 20 MΩ was compensated by 70–80% and monitored during experiments. Currents were recorded using an EPC-8 amplifier (HEKA Electronics, Lambrecht, Germany), filtered at 5 kHz, sampled, and stored on a personal computer. Drugs were applied using the RSC-200 perfusion system (BioLogic Science Instruments, Claix, France) under computer control. The solution exchange time in the whole-cell mode was 50–60 ms. […] The pipette solution contained (in mM) CsF 100, CsCl 40, NaCl 5, CaCl2 0.5, EGTA 5, and HEPES 10 (pH was adjusted to 7.2 with CsOH). Experiments were performed at room temperature (22–24°C). […] Lamotrigine, topiramate, levetiracetam, felbamate, carbamazepine, tiagabin, vigabatrin, zonisamide, and gabapentin were purchased from Tocris Bioscience (Bristol, United Kingdom). Perampanel was from MedChemExpress (Stockholm, Sweden). Kinetics of transient processes of more than 20-ms duration was approximated by exponential functions. Experiments were performed at −80 mV holding voltage. All experimental data are presented as mean ± SD estimated from at least four experiments. Significance of the effects was tested with paired t test. Differences were considered significant at p < 0.05. 3D structures of compounds were calculated by the ZMM software (zmmsoft.ca).

[2] = tested on: CP-AMPARs; assay: Whole-cell patch-clamp of kainate-induced currents in isolated striatal giant interneurons; assay type: cell-based, Wistar rat; settings: for IC50: read-out: IC50 CP-AMPARs, kainate-induced currents; for CP-AMPARs % inhibition at 100 µM: 100 µM compound, currents induced by 100 µM kainate, mean ± SD, N = 5
Experimental: All experimental procedures were approved by the Animal Care and Use Committee of the I.M. Sechenov Institute of Evolutionary Physiology and Biochemistry of the Russian Academy of Sciences. Wistar rats (13–19 days old) were anesthetized with sevoflurane and then decapitated. Maximum effort was made to minimize the number of animals used. Brains were removed quickly and cooled to 2–4°C in an ice bath. […] Single neurons were freed from slices by vibrodissociation ([Vorobjev, 1991]). The antagonism of CP-AMPARs was studied on striatal giant interneurons ([Bernard et al., 1997]; [Gotz et al., 1997]), which were identified by their shape and size. […] The antagonism of CI-AMPARs was studied on pyramidal neurons from the CA1 area of the hippocampus.
Series resistance of about 20 MΩ was compensated by 70–80% and monitored during experiments. Currents were recorded using an EPC-8 amplifier (HEKA Electronics, Lambrecht, Germany), filtered at 5 kHz, sampled, and stored on a personal computer. Drugs were applied using the RSC-200 perfusion system (BioLogic Science Instruments, Claix, France) under computer control. The solution exchange time in the whole-cell mode was 50–60 ms. The extracellular solution contained (in mM) NaCl 143, KCl 5, MgCl2 2.0, CaCl2 2.5, D-glucose 18, and HEPES 10 (pH was adjusted to 7.3 with HCl). The pipette solution contained (in mM) CsF 100, CsCl 40, NaCl 5, CaCl2 0.5, EGTA 5, and HEPES 10 (pH was adjusted to 7.2 with CsOH). Experiments were performed at room temperature (22–24°C). […] Lamotrigine, topiramate, levetiracetam, felbamate, carbamazepine, tiagabin, vigabatrin, zonisamide, and gabapentin were purchased from Tocris Bioscience (Bristol, United Kingdom). Perampanel was from MedChemExpress (Stockholm, Sweden). Kinetics of transient processes of more than 20-ms duration was approximated by exponential functions. Experiments were performed at −80 mV holding voltage. All experimental data are presented as mean ± SD estimated from at least four experiments. Significance of the effects was tested with paired t test. Differences were considered significant at p < 0.05. 3D structures of compounds were calculated by the ZMM software (zmmsoft.ca).

[3] = target: T1, CI-AMPARs; set-up: method as in Barygin, 2016; settings: ref Barygin, 2016, cited from earlier work
[4] = tested on: hGluA1-4 receptors; set-up: method as in Fukushima et al. (2020); settings: ref Fukushima et al. (2020); cited from earlier work
[5] = tested on: AMPA and kainate-evoked Ca^2+ uptake; settings: 30 and 100 µM topiramate; ref Poulsen et al., 2004; cited from earlier work
[6] = tested on: AMPA receptors; set-up: method as in Carunchio et al., 2007; settings: 200 µM levetiracetam; ref Carunchio et al., 2007; cited from earlier work
[7] = tested on: AMPAR; set-up: method as in Dudic and Reiner, 2019; settings: ref Dudic and Reiner, 2019; cited from earlier work
[8] = tested on: postsynaptic AMPA receptors; set-up: method as in Lee et al., 2008; settings: 30 and 100 µM lamotrigine; ref Lee et al., 2008; cited from earlier work
[9] = double-pulse protocol, 30-s pause

With `N#Cc1ccccc1-c1cc(-c2ccccn2)cn(-c2ccccc2)c1=O` [Perampanel] the “Activity drop at high (500 µM) kainate concentration” value [1] was “more active in the case of lower kainate concentration and Yes”, the “More active against CI-AMPARs” value [1] was “equipotently inhibited both receptor subtypes and No” and the “time constant τ of the response to testing kainate application in the trapping protocol” value ([1]; 500 nM perampanel, double-pulse protocol, n = 4) was 41 ± 12 ms. For the same compound, the “decrease in the % of inhibition with the increase in agonist concentration” value ([1]; 50 vs 500 µM kainate) was 30–40%, the “Difference in the % of inhibition in coapplication and preapplication protocols” value [1] was “No” and the “Difference in the % of inhibition in coapplication and preapplication protocols” value ([1]; listed as perampanel) was “equally effective in preapplication and coapplication protocols”. For the same compound, the “Trap in kainate 100 µM” value [1, 9] was “No”, the “Trap in kainate 500 µM” value [1, 9] was “No” and the IC50 ([1]; kainate-induced currents) was 63 ± 8 nM. For the same compound, the IC50 [2] was 60 ± 6 nM, the “reduction in activity by cyclothiazide” value ([3]; isolated CA1 pyramidal neurons) was “ca. 20 fold” and the “Activity drop in the presence of cyclothiazide” value [3] was “Yes”. The “Activity drop in the presence of cyclothiazide” value ([3]; listed as perampanel) was “less active in the presence of cyclothiazide”.

In the case of `CC1(C)O[C@@H]2[C@@H](CO[C@@]3(COS(N)(=O)=O)OC(C)(C)O[C@@H]23)O1` [Topiramate], the “activity against hGluA1-4 receptors” value [4] is listed as “did not find significant activity”, the “inhibition of AMPA and kainate-evoked Ca^2+ uptake” value [5] is listed as “up to 60%” and the “CI-AMPARs % inhibition at 100 µM” value [1] is listed as 12 ± 2%. The inhibition at 100 µM [1] was ≤ 20%, the “CP-AMPARs % inhibition at 100 µM” value ([2]; −80 mV) was 14 ± 2% and the “CP-AMPARs % inhibition at 100 µM” value ([2]; −80 mV, listed as topiramate) was ≤ 20%.

In the case of `CC[C@@H](C(N)=O)N1CCCC1=O` [Levetiracetam], the “activity against hGluA1-4 receptors” value [4] is given as “did not find significant activity”, the “decrease of the amplitude of kainate-induced current” value [6] is given as “about 26%” and the “CI-AMPARs % inhibition at 100 µM” value [1] is given as 6 ± 2%. For the same compound, the “CI-AMPARs % inhibition at 100 µM” value ([1]; listed as levetiracetam) was ≤ 20%, the “CP-AMPARs % inhibition at 100 µM” value ([2]; −80 mV) was 9 ± 3% and the “CP-AMPARs % inhibition at 100 µM” value ([2]; −80 mV, listed as levetiracetam) was ≤ 20%.

For `O=c1[nH]c2cc([N+](=O)[O-])c([N+](=O)[O-])cc2[nH]c1=O` [DNQX], the pH-dependence [7] is given as “Yes ^a” and the IC50 ([2]; Hill equation, −80 mV) is given as 310 ± 60 nM.

For `Nc1nnc(-c2cccc(Cl)c2Cl)c(N)n1` [Lamotrigine], the “activity against hGluA1-4 receptors” value [4] is given as “did not find significant activity”, the “decrease of the amplitude of the currents induced by exogenously applied AMPA” value [8] is given as 10% and the “CI-AMPARs % inhibition at 100 µM” value [1] is given as 14 ± 5%. For the same compound, the inhibition at 100 µM [1] was ≤ 20%, the “CP-AMPARs % inhibition at 100 µM” value ([2]; −80 mV) was 13 ± 3% and the “CP-AMPARs % inhibition at 100 µM” value ([2]; −80 mV, listed as lamotrigine) was ≤ 20%.
